US20190187129A1, “CANCER MODELING PLATFORMS AND METHODS OF USING THE SAME” (Wake Forest University Health Sciences, priority 2016, published 2019)

Legend:
Type in all cases: cell-based
HT29 cells = assay: cells; settings: Homo sapiens, HT-29, read-out: relative cellular viability (MTS, relative to control)
Method: (§1) Cancer cells seeded directly into wells were given 4-5 hours to reattach to the bottom of the wells. After that time, the anticancer drug solutions were administered in place of the media (FIG. 6, panel A) and an MTS assay was carried out 2 days later to determine cell viability. […] At 100 μM concentrations of Regorafenib and Sorafenib, and 100 mM concentrations of 5-FU, cellular viability remained below 20% that of the control for all four of the colorectal cancer cell lines utilized. However, screening with Dabrafenib and Trametinib produced diverging results from the other three anticancer drugs at higher concentrations. […] When treated with 1 mM concentrations of 5-FU, relative cellular viability was approximately 39% for SW480 cells and remained between 10%-22% for the HCT116, HT29, and CACO2 cells. These values were considerably lower than the relative cellular viability values for the lowest concentrations of the other anticancer drugs.
(§2) Cell Seeding: The original 15 mL centrifuge tubes containing the 10 mL of DMEM-10, cells, and trypsin were placed into a centrifuge. The centrifugation setting was 1500 RPM and at maximal acceleration for 5 minutes. After that time, the media and trypsin mixture was aspirated from the tubes, leaving the cell pellets still intact. 5 mL of DMEM-10 was then pipetted into each of the tubes, resuspending the cells in the process. Calculated volumes of the 5 mL cell-media solution were determined to ensure that 25,000 cells of each of the four colorectal cancer cell lines were seeded directly into each of the wells of a polystyrene clear-bottom 96-well plate. 100 μL of DMEM-10 media was then pipetted directly into the wells. The 96-well plates were incubated at 37° C. and 5% CO2 for 5 hours to allow the cells to reattach themselves to the bottom of the wells until media was aspirated and anticancer drug solutions were added.
(§3) Addition of Anticancer Drugs for Screening: The anticolorectal cancer drugs used in this screening included 5-FU, Regorafenib, Sorafenib, Trametinib, and Dabrafenib (Sigma-Aldrich, Missouri, USA)). High concentration drug stock solutions were created with DMSO. Lower concentration drug solutions were created by mixing the anticancer drug stocks with DMEM-10 media. […] drug solutions were generated for 5-FU; 1 μM, 10 μM, and 100 μM drug solutions were generated for Regorafenib, Sorafenib, and Dabrafenib; and 1 nM, 10 nM, and 100 nM drug solutions were generated for Trametinib. Media was carefully aspirated from the wells and 200 μL of the various drug-media solutions were placed into the wells containing cells. Three duplicates were generated for each anticancer drug concentration with each of the different cell types to calculate averages and run statistics on the data generated. Well plates were then incubated at 37° C. and 5% CO2 for […].
(§4) Cell viability assay: Cell viability was determined 48 hours after exposure to the anticancer drug solutions. The viability of the cells was examined by the CellTiter 96® AQueous One Solution Cell Proliferation (MTS) assay (Promega, Wisconsin, USA). The anticancer drug-media solutions were aspirated from the wells and 200 μL of the MTS reagent was carefully pipetted into the wells. The incubation time for the cells with the MTS reagent was approximately 45 minutes. The cell viability assay was performed on another 96-well plate and the absorbance was quantified by the EnVision Multilabel Plate Reader (PerkinElmer, California, USA).

CACO2 cells = assay: cells; settings: Homo sapiens, Caco-2, read-out: relative cellular viability (MTS, relative to control)
Method: as §1, §2, §3, §4

HCT116 cells = assay: cells; settings: Homo sapiens, HCT-116, read-out: relative cellular viability (MTS, relative to control)
Method: as §1, §2, §3, §4

[1] = tested on: Ring constructs made with a Caco2 outer ring and a SW480 core; assay: Concentric ring construct drug treatment (MTS assay, LIVE/DEAD staining)
Source text: The first objective of this project was to evaluate a 3D model of a colorectal cancer tumor surrounded by normal host tissue. The engineered concentric ring construct consists of a colorectal tumor core and a colon epithelial outer ring, to model a tumor in a reductionist, yet physiologically relevant environment. This construct was used to measure the growth of the tumor core, any observed invasion of the tumor cells into the epithelial layer, and the efficacy of drugs. The constructs were created with cells suspended in a hyaluronic acid and gelatin-based hydrogel. The tumor cores were made using one of four colorectal cancer cells types, thereby providing models of 4 levels of malignancy. The HCT116 cells were the most malignant, followed by the HT29, SW480, and Caco2 cells. Caco2 cells were also employed in the outer ring, as they best resemble healthy epithelial cells. The tumor core was fluorescently labeled and fluorescent imaging was used to monitor the tumor core over the course of 7-14 days. […] Ring constructs made with a Caco2 outer ring and a SW480 core were also treated with Regorafenib, a chemotherapy agent.

With `CNC(=O)c1cc(Oc2ccc(NC(=O)Nc3ccc(Cl)c(C(F)(F)F)c3)c(F)c2)ccn1` [Regorafenib] the viability at 100 µM (HT29 cells) was under 20%, the viability at 100 µM (CACO2 cells) was under 20% and the viability at 100 µM (HCT116 cells) was under 20%. For the same compound, the “cells targeted within the ring construct (LIVE/DEAD staining)” value ([1]; inner ring versus outer Caco2 cells) was “selectively targeted the inner ring of the construct” and the “amount of viable cells after treatment (MTS assay)” value ([1]; ring construct, Caco2 outer ring, SW480 core) was “decrease in the amount of viable cells”.
